# Measured values as given in US8211928B2, “Hepatitis C virus inhibitors” (Bristol-Myers Squibb Company, priority 2009, dated 2012).
# System: HCV 1b genotype
# Assay: HCV replicon assay, 1b genotype
# Type: cell-based
# Details: Hepatitis C virus; HCV 1b genotype replicon; activity ranges; read-out: 1b EC50 in Range
# Protocol: An HCV Replion assay was utilized in the present disclosure, and was prepared, conducted and validated as described in commonly owned PCT/US2006/022197 and in O'Boyle et. al. Antimierob Agents Chemother. 2005 April; 49(4):1346-53. Assay methods incorporating luciferase reporters have also been used as described (Apath.com).
# HCV-neo replicon cells and HCV replicon cells containing mutations in the NS5A region were used to test the currently described family of compounds. The compounds were determined to have more than 10-fold less inhibitory activity on cells containing mutations than wild-type cells. Thus, the compounds of the present disclosure can be effective in inhibiting the function of the HCV NS5A protein and are understood to be as effective in combinations as previously described in application PCT/US2006/022197 and commonly owned WO/04014852. Further, the compounds of the present disclosure can be effective against the HCV 1b genotype. It should also be understood that the compounds of the present disclosure can inhibit multiple genotypes of HCV. […] In one embodiment, compounds of the present disclosure are inhibitory versus 1a, 1b, 2a, 2b, 3a, 4a, and 5a genotypes. Activity ranges are as follows: A=>100 nM; B=1-100 nM; C=101-999 pM; and D=1-100 pM.
row,Compound,EC50 [nM]
1,COCC[C@H](NC(=O)OC)C(=O)N1CCC[C@H]1C(=O)Nc1noc2ccc(-c3ccc(-c4cnc([C@@H]5CCCN5C(=O)[C@H](CCOC)NC(=O)OC)[nH]4)cc3)cc12 [Example 15],1 to 100
2,COC(=O)N[C@H](C(=O)N1CCC[C@H]1C(=O)Nc1n[nH]c2ccc(-c3ccc(-c4cnc([C@@H]5CCCN5C(=O)[C@@H](NC(=O)OC)C(C)C)[nH]4)cc3)cc12)C(C)C [Example 31],> 100
3,COC(=O)N[C@H](C(=O)N1CCC[C@H]1C(=O)Nc1noc2cc(-c3ccc(-c4cnc([C@@H]5CCCN5C(=O)[C@@H](NC(=O)OC)C(C)C)[nH]4)cc3)ccc12)C(C)C [Example 5],0.101 to 0.999
4,COC(=O)N[C@H](C(=O)N1CCC[C@H]1C(=O)Nc1n[nH]c2cc(-c3ccc(-c4cnc([C@@H]5CCCN5C(=O)[C@@H](NC(=O)OC)C(C)C)[nH]4)cc3)ccc12)C(C)C [Example 24],0.101 to 0.999
5,"COC(=O)N[C@@H](C)C(=O)N1CCC[C@H]1C(=O)Nc1n[nH]c2cc(-c3ccc(-c4cnc([C@@H]5CCCN5C(=O)[C@H](C)NC(=O)OC)[nH]4)cc3)ccc12 [Example 22, (S)-1-((S)-2-Methoxycarbonylaminopropanoyl)-N-(6-(4-(2-((S)-1-((S)-2-methoxycarbonylaminopropanoyl)pyrrolidin-2-yl)-1H-imidazol-5-yl)phenyl)-1H-indazol-3-yl)pyrrolidine-2-carboxamide]",1 to 100
6,COC(=O)N[C@H](C(=O)N1CCC[C@H]1C(=O)Nc1noc2cc(-c3ccc(-c4cnc([C@@H]5CCCN5C(=O)[C@@H](NC(=O)OC)[C@@H](C)OC)[nH]4)cc3)ccc12)[C@@H](C)OC [Example 8],0.101 to 0.999
7,COC(=O)N[C@@H](C(=O)N1CCC[C@H]1C(=O)Nc1n[nH]c2ccc(-c3ccc(-c4cnc([C@@H]5CCCN5C(=O)[C@H](NC(=O)OC)c5ccccc5)[nH]4)cc3)cc12)c1ccccc1 [Example 34],1 to 100
8,COC(=O)N[C@@H](C)C(=O)N1CCC[C@H]1C(=O)Nc1noc2ccc(-c3ccc(-c4cnc([C@@H]5CCCN5C(=O)[C@H](C)NC(=O)OC)[nH]4)cc3)cc12 [Example 12],1 to 100
9,COC(=O)N[C@@H](C(=O)N1CCC[C@H]1C(=O)Nc1noc2ccc(-c3ccc(-c4cnc([C@@H]5CCCN5C(=O)[C@H](NC(=O)OC)C(C)C)[nH]4)cc3)cc12)C(C)C [Example 16],> 100
10,COC(=O)N[C@@H](C(=O)N1CCC[C@H]1C(=O)Nc1noc2cc(-c3ccc(-c4cnc([C@@H]5CCCN5C(=O)[C@H](NC(=O)OC)C(C)C)[nH]4)cc3)ccc12)C(C)C [Example 7],> 100
11,COC(=O)N[C@H](C(=O)N1CCC[C@H]1C(=O)Nc1n[nH]c2cc(-c3ccc(-c4cnc([C@@H]5CCCN5C(=O)[C@@H](NC(=O)OC)[C@@H](C)OC)[nH]4)cc3)ccc12)[C@@H](C)OC [Example 25],1 to 100
12,COCC[C@H](NC(=O)OC)C(=O)N1CCC[C@H]1C(=O)Nc1n[nH]c2ccc(-c3ccc(-c4cnc([C@@H]5CCCN5C(=O)[C@H](CCOC)NC(=O)OC)[nH]4)cc3)cc12 [Example 32],1 to 100
13,COC(=O)N[C@@H](C)C(=O)N1CCC[C@H]1C(=O)Nc1n[nH]c2ccc(-c3ccc(-c4cnc([C@@H]5CCCN5C(=O)[C@H](C)NC(=O)OC)[nH]4)cc3)cc12 [Example 29],> 100
14,COC(=O)N[C@H](C(=O)N1CCC[C@H]1C(=O)Nc1n[nH]c2ccc(-c3ccc(-c4cnc([C@@H]5CCCN5C(=O)[C@@H](NC(=O)OC)[C@@H](C)OC)[nH]4)cc3)cc12)[C@@H](C)OC [Example 33],> 100
15,CCN(CC)[C@@H](C(=O)N1CCC[C@H]1C(=O)Nc1n[nH]c2cc(-c3ccc(-c4cnc([C@@H]5CCCN5C(=O)[C@@H](c5ccccc5)N(CC)CC)[nH]4)cc3)ccc12)c1ccccc1 [Example 23],0.001 to 0.1
16,CN(C)[C@@H](C(=O)N1CCC[C@H]1C(=O)Nc1noc2ccc(-c3ccc(-c4cnc([C@@H]5CCCN5C(=O)[C@@H](c5ccccc5)N(C)C)[nH]4)cc3)cc12)c1ccccc1 [Example 17],1 to 100
17,COC(=O)N[C@H](C(=O)N1CCC[C@H]1C(=O)Nc1noc2ccc(-c3ccc(-c4cnc([C@@H]5CCCN5C(=O)[C@@H](NC(=O)OC)[C@@H](C)OC)[nH]4)cc3)cc12)[C@@H](C)OC [Example 14],1 to 100
18,CN(C)[C@@H](C(=O)N1CCC[C@H]1C(=O)Nc1noc2cc(-c3ccc(-c4cnc([C@@H]5CCCN5C(=O)[C@@H](c5ccccc5)N(C)C)[nH]4)cc3)ccc12)c1ccccc1 [Example 6],0.101 to 0.999
19,COC(=O)N[C@H](C(=O)N1CCC[C@H]1C(=O)Nc1noc2ccc(-c3ccc(-c4cnc([C@@H]5CCCN5C(=O)[C@@H](NC(=O)OC)C(C)C)[nH]4)cc3)cc12)C(C)C [Example 13],1 to 100
20,CN(C)[C@@H](C(=O)N1CCC[C@H]1C(=O)Nc1n[nH]c2ccc(-c3ccc(-c4cnc([C@@H]5CCCN5C(=O)[C@@H](c5ccccc5)N(C)C)[nH]4)cc3)cc12)c1ccccc1 [Example 30],1 to 100

# Same assay, conditions: Hepatitis C virus; HCV 1b genotype replicon; read-out: 1b EC50
row,Compound,EC50 [nM]
1,COC(=O)N[C@H](C(=O)N1CCC[C@H]1C(=O)Nc1n[nH]c2ccc(-c3ccc(-c4cnc([C@@H]5CCCN5C(=O)[C@@H](NC(=O)OC)[C@@H](C)OC)[nH]4)cc3)cc12)[C@@H](C)OC [Example 33],1200
2,CCN(CC)[C@@H](C(=O)N1CCC[C@H]1C(=O)Nc1n[nH]c2cc(-c3ccc(-c4cnc([C@@H]5CCCN5C(=O)[C@@H](c5ccccc5)N(CC)CC)[nH]4)cc3)ccc12)c1ccccc1 [Example 23],0.043
3,COC(=O)N[C@H](C(=O)N1CCC[C@H]1C(=O)Nc1noc2ccc(-c3ccc(-c4cnc([C@@H]5CCCN5C(=O)[C@@H](NC(=O)OC)C(C)C)[nH]4)cc3)cc12)C(C)C [Example 13],30.1
